Measurements from PubChem BioAssay (NCI).
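Growth conditions: 96-well plates. Treatment: test compound, 48 hours, 5 concentrations. Analysis: linear interpolation between bracketing concentrations; unreached endpoints set to highest concentration. At the TGI there is no net growth.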

Legend:
Assay in all cases: growth of human tumour cells (NCI), 48 h
SW-620 colon = system: SW-620 colon
NCI-H460 lung = system: NCI-H460 lung
HOP-92 NSCLC = system: HOP-92 NSCLC
A549 NSCLC = system: A549 NSCLC
HOP-62 NSCLC = system: HOP-62 NSCLC
RXF 393 renal = system: RXF 393 renal
NCI-H23 lung = system: NCI-H23 lung
ACHN renal = system: ACHN renal
LOX IMVI melanoma = system: LOX IMVI melanoma
EKVX NSCLC = system: EKVX NSCLC
COLO 205 colon = system: COLO 205 colon
NCI-H522 lung = system: NCI-H522 lung
OVCAR-4 ovarian = system: OVCAR-4 ovarian
CAKI-1 renal = system: CAKI-1 renal
SK-OV-3 ovarian = system: SK-OV-3 ovarian
KM12 colon = system: KM12 colon
786-0 renal = system: 786-0 renal
A498 renal = system: A498 renal
MOLT-4 leukemia = system: MOLT-4 leukemia
CCRF-CEM leukemia = system: CCRF-CEM leukemia
U251 CNS = system: U251 CNS
NCI-H226 lung = system: NCI-H226 lung
OVCAR-5 ovarian = system: OVCAR-5 ovarian
HL-60(TB) leukemia = system: HL-60(TB) leukemia
OVCAR-8 ovarian = system: OVCAR-8 ovarian
PC-3 prostate = system: PC-3 prostate
TK-10 renal = system: TK-10 renal
BT-549 breast = system: BT-549 breast
SF-268 CNS = system: SF-268 CNS
HCT-15 colon = system: HCT-15 colon
SN12C renal = system: SN12C renal
MDA-MB-231 breast = system: MDA-MB-231 breast
HCT-116 colon = system: HCT-116 colon
MCF7 breast = system: MCF7 breast
RPMI-8226 leukemia = system: RPMI-8226 leukemia
SK-MEL-5 melanoma = system: SK-MEL-5 melanoma
IGROV1 ovarian = system: IGROV1 ovarian
HCC-2998 colon = system: HCC-2998 colon
SF-295 CNS = system: SF-295 CNS
HT29 colon = system: HT29 colon
SF-539 CNS = system: SF-539 CNS
SK-MEL-28 melanoma = system: SK-MEL-28 melanoma
K-562 leukemia = system: K-562 leukemia
MDA-MB-435 = system: MDA-MB-435
MALME-3M melanoma = system: MALME-3M melanoma
SK-MEL-2 melanoma = system: SK-MEL-2 melanoma
HS 578T breast = system: HS 578T breast
UACC-62 melanoma = system: UACC-62 melanoma
NCI/ADR-RES ovarian = system: NCI/ADR-RES ovarian
OVCAR-3 ovarian = system: OVCAR-3 ovarian
T-47D breast = system: T-47D breast
DU-145 prostate = system: DU-145 prostate
M14 melanoma = system: M14 melanoma
SNB-19 CNS = system: SNB-19 CNS
UO-31 renal = system: UO-31 renal
UACC-257 melanoma = system: UACC-257 melanoma
MDA-N = system: MDA-N
SR leukemia = system: SR leukemia
SNB-75 CNS = system: SNB-75 CNS

Structure (SMILES): N=C(N)SCc1cc(Cl)cc(Cl)c1O
- TGI (SW-620 colon): 49.4 µM
- TGI (NCI-H460 lung): 36.2 µM
- TGI (HOP-92 NSCLC): 35.1 µM
- TGI (A549 NSCLC): 53.9 µM
- TGI (HOP-62 NSCLC): 38 µM
- TGI (RXF 393 renal): 46.8 µM
- TGI (NCI-H23 lung): 40.4 µM
- TGI (ACHN renal): 36.4 µM
- TGI (LOX IMVI melanoma): 36.2 µM
- TGI (EKVX NSCLC): 42.8 µM
- TGI (COLO 205 colon): 33 µM
- TGI (NCI-H522 lung): 33.4 µM
- TGI (OVCAR-4 ovarian): 51.6 µM
- TGI (CAKI-1 renal): 33.3 µM
- TGI (SK-OV-3 ovarian): > 100 µM
- TGI (KM12 colon): 33.7 µM
- TGI (786-0 renal): 32.2 µM
- TGI (A498 renal): 51.7 µM
- TGI (MOLT-4 leukemia): 50.8 µM
- TGI (CCRF-CEM leukemia): 35.6 µM
- TGI (U251 CNS): 30 µM
- TGI (NCI-H226 lung): 43.1 µM
- TGI (OVCAR-5 ovarian): 40.3 µM
- TGI (HL-60(TB) leukemia): 21.1 µM
- TGI (OVCAR-8 ovarian): 38.3 µM
- TGI (PC-3 prostate): 43.9 µM
- TGI (TK-10 renal): 35.4 µM
- TGI (BT-549 breast): 36.6 µM
- TGI (SF-268 CNS): 58.3 µM
- TGI (HCT-15 colon): 46.8 µM
- TGI (SN12C renal): 36.6 µM
- TGI (MDA-MB-231 breast): 30.5 µM
- TGI (HCT-116 colon): 29.8 µM
- TGI (MCF7 breast): 60.1 µM
- TGI (RPMI-8226 leukemia): 47.5 µM
- TGI (SK-MEL-5 melanoma): 31.9 µM
- TGI (IGROV1 ovarian): 38.2 µM
- TGI (HCC-2998 colon): 31.9 µM
- TGI (SF-295 CNS): 55.7 µM
- TGI (HT29 colon): 32.1 µM
- TGI (SF-539 CNS): 22.1 µM
- TGI (SK-MEL-28 melanoma): 46.4 µM
- TGI (K-562 leukemia): 41.5 µM
- TGI (MDA-MB-435): 38 µM
- TGI (MALME-3M melanoma): 72.7 µM
- TGI (SK-MEL-2 melanoma): 39.6 µM
- TGI (HS 578T breast): 72 µM
- TGI (UACC-62 melanoma): 34 µM
- TGI (NCI/ADR-RES ovarian): 89.3 µM
- TGI (OVCAR-3 ovarian): 31.4 µM
- TGI (T-47D breast): 51.8 µM
- TGI (DU-145 prostate): 36.2 µM
- TGI (M14 melanoma): 42.1 µM
- TGI (SNB-19 CNS): 56.8 µM
- TGI (UO-31 renal): 32.4 µM
- TGI (UACC-257 melanoma): 31.6 µM
- TGI (MDA-N): 33.1 µM

Structure (SMILES): CN1C[C@H]2[C@@H](C1=O)[C@H](c1ccccc1)ON2C
- TGI (SW-620 colon): > 100 µM
- TGI (NCI-H460 lung): > 100 µM
- TGI (HOP-92 NSCLC): > 100 µM
- TGI (A549 NSCLC): > 100 µM
- TGI (HOP-62 NSCLC): > 100 µM
- TGI (NCI-H23 lung): > 100 µM
- TGI (ACHN renal): > 100 µM
- TGI (LOX IMVI melanoma): > 100 µM
- TGI (COLO 205 colon): > 100 µM
- TGI (NCI-H522 lung): > 100 µM
- TGI (OVCAR-4 ovarian): > 100 µM
- TGI (CAKI-1 renal): > 100 µM
- TGI (SK-OV-3 ovarian): > 100 µM
- TGI (SR leukemia): > 100 µM
- TGI (MOLT-4 leukemia): > 100 µM
- TGI (CCRF-CEM leukemia): > 100 µM
- TGI (U251 CNS): > 100 µM
- TGI (NCI-H226 lung): > 100 µM
- TGI (OVCAR-5 ovarian): > 100 µM
- TGI (OVCAR-8 ovarian): > 100 µM
- TGI (PC-3 prostate): > 100 µM
- TGI (TK-10 renal): > 100 µM
- TGI (HCT-15 colon): > 100 µM
- TGI (SN12C renal): > 100 µM
- TGI (MDA-MB-231 breast): > 100 µM
- TGI (SNB-75 CNS): > 100 µM
- TGI (HCT-116 colon): > 100 µM
- TGI (MCF7 breast): > 100 µM
- TGI (RPMI-8226 leukemia): > 100 µM
- TGI (SK-MEL-5 melanoma): > 100 µM
- TGI (IGROV1 ovarian): > 100 µM
- TGI (HCC-2998 colon): > 100 µM
- TGI (SF-295 CNS): > 100 µM
- TGI (HT29 colon): > 100 µM
- TGI (SK-MEL-28 melanoma): > 100 µM
- TGI (K-562 leukemia): > 100 µM
- TGI (MDA-MB-435): > 100 µM
- TGI (SK-MEL-2 melanoma): > 100 µM
- TGI (HS 578T breast): > 100 µM
- TGI (NCI/ADR-RES ovarian): > 100 µM
- TGI (OVCAR-3 ovarian): > 100 µM
- TGI (T-47D breast): > 100 µM
- TGI (DU-145 prostate): > 100 µM
- TGI (M14 melanoma): > 100 µM
- TGI (SNB-19 CNS): > 100 µM
- TGI (UO-31 renal): > 100 µM
- TGI (UACC-257 melanoma): > 100 µM
- TGI (MDA-N): > 100 µM
